We go through three compounds from patent EP2974721A1, “A PHARMACEUTICAL COMPOSITION COMPRISING A GAS GENERATING INGREDIENT” (Nanomega Medical Corporation, priority 2014, dated 2016).

Assay [1] relates to intestinal proteases. Nature of the assay: Inhibition of proteolytic degradation of insulin in isolated proximal small intestine (duodenum). In kind it is biochemical. Conditions: added to insulin; duodenum freshly isolated from rats; result in words. The source says: Inhibition of proteolytic degradation. Inhibiting the proteolytic degradation of insulin in the intestinal fluid and the mucosal layer is critical for increasing its oral bioavailability. The inhibiting effects of DTPA and SDS on intestinal proteases were separately studied in in vitro studies of the proximal portion of the small intestine (i.e., the duodenum) freshly isolated from rats. The various digestive enzymes secreted from the pancreas into the duodenum are well-recognized. […] Insulin is highly sensitive to trypsin and chymotrypsin, which are Ca^2+-dependent enzymes in the intestinal fluid and in the mucosal layer. One strategy for inhibiting intestinal protease activities is using complexing agents such as DTPA to remove essential metal ions (e.g., Ca^2+) from the enzyme structure at vicinity of the bioactive agent. […] Proposed molecular mechanisms of proteolytic inhibition by SDS include local conformational changes or altered charge distributions of the proteases induced by their specific binding of SDS.

Assay [2] has as its system Caco-2 cell monolayers. Nature of the assay: Epithelial permeability: transmission of FITC-insulin across cell monolayers (fluorescence microscopy). In kind it is cell-based, human. Conditions: cells co-cultured with the component; stained for Cld 4, E-cadherin, DAPI; result in words. From the text:
Cell images of cells bound with nano/micro bubbles.
Enhanced epithelial permeability. Drug permeation may occur across the intestinal epithelium and through either transcellular or paracellular routes. To elucidate the precise mechanisms of interactions between the bubble carrier system and epithelial cells and its subsequent transport of the drug, the effects of DTPA and SDS on epithelial permeability were individually studied using Caco-2 cell monolayers. Monolayers of Caco-2 cells derived from human colorectal adenocarcinoma are widely used in in vitro models for predicting intestinal drug permeability.

In the case of `CCCCCCCCCCCCOS(=O)(=O)[O-].[Na+]` [SDS, sodium dodecyl sulfate], the “protective effect on insulin against the intestinal proteases” value in assay [1] is “strong protective effect”. Besides, in assay [2], the “transmission of FITC-insulin (pathway)” value is “promote transmission of FITC-insulin via both of paracellular pathway and transcellular pathway”.

With `O=C(O)CN(CCN(CC(=O)O)CC(=O)O)CCN(CC(=O)O)CC(=O)O` [DTPA, diethylene triamine pentaacetic acid], in assay [1], the “protective effect on insulin against the intestinal proteases” value is recorded as “strong protective effect”.

Consider `O=C(O)CN(CCN1CC(=O)OC(=O)C1)CCN1CC(=O)OC(=O)C1` [DTPA dianhydride, diethylenetriaminepentaacetic dianhydride], for which the “transmission of FITC-insulin (pathway)” value in assay [2] is listed as “promote transmission of FITC-insulin via paracellular pathway”.
